As usually defined, the IC50 is the concentration that gives 50% inhibition.

A value given as a limit tells only on which side of the number the result lay.

This experiment addresses T1, biotinylated human IL-17 (binding to IL17R/Fc) (Homo sapiens, UniProt Q16552).
T1 construct: purchased R&D Systems 317-ILB (IL-17, biotinylated); 177-IR (IL17R/Fc)
T1 sequence (Q16552 20-155 limits assumed): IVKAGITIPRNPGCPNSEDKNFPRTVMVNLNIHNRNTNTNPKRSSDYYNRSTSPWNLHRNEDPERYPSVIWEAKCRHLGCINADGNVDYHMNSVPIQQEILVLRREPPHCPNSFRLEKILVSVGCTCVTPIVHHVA
Briefly: IL-17 competition ELISA II (captured IL17R/Fc, biotinylated IL-17). Put shortly: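 Anti-human IgG-coated plates captured IL17R/Fc (10 nM), then compound (5-fold dilutions from 1 μM) and biotinylated human IL-17 (20 nM stock) were added for 30 min at room temperature in PBST. Bound IL-17 detected by streptavidin-HRP/TMB at 450 nm. IC50 from 4-parameter logistic fit between no-competitor and blank controls.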
(In general: ELISA stands for enzyme-linked immunosorbent assay.)
As for `C[C@H]1NC(=O)[C@@H](Cc2ccc(NC(=O)[C@H](Cc3ccccc3Cl)NC(=O)Cc3ccc(F)cc3)cc2)NC(=O)CC2(CCOCC2)NC(=O)CCCCCCNC1=O` [Compound 622], the IC50 is 100 to 1000 nM.

Take `C[C@H]1NC(=O)[C@@H](Cc2ccc(NC(=O)[C@@H](NC(=O)Cc3ccc(F)cc3)C3CCCCC3)cc2)NC(=O)CC2(CCCC2)CC(=O)N(C)CCCCCN(C)C1=O` [Compound 623]: the IC50 was under 100 nM. For `COC(=O)N[C@H](C(=O)Nc1ccc(C[C@H]2NC(=O)CC3(CCCC3)CC(=O)N(C)CCOCCOCCNC2=O)cc1)C1CCCCC1` [Compound 624], the IC50 is over 10000 nM. The figure for `COC(=O)N[C@H](C(=O)Nc1ccc(C[C@H]2NC(=O)CC3(CCCC3)CC(=O)N(C)CCCCCN(C)C(=O)[C@@H](C)NC2=O)cc1)C1CCCCC1` [Compound 625] is 100 to 1000 nM.

Take `C[C@H]1NC(=O)[C@@H](Cc2ccc(NC(=O)[C@H](Cc3ccccc3Cl)NC(=O)Cc3cccnc3)cc2)NC(=O)CC2(CCCC2)CC(=O)N(C)CCCCCN(C)C1=O` [Compound 628]: the IC50 is under 100 nM. For the compound `CN1CCCCCN(C)C(=O)[C@@H](Cc2ccncc2)NC(=O)[C@@H](Cc2ccc(NC(=O)[C@H](Cc3ccccc3Cl)NC(=O)Cc3cccnc3)cc2)NC(=O)CC2(CCCC2)CC1=O` [Compound 629], the IC50 is under 100 nM.

As for `C[C@H]1NC(=O)[C@@H](Cc2ccc(NC(=O)[C@H](Cc3cccs3)NC(=O)C(F)(F)c3ccccc3)cc2)NC(=O)CC2(CCCC2)CC(=O)N(C)CCCCCN(C)C1=O` [Compound 630], the concentration for half-maximal inhibition (IC50) was under 100 nM. The figure for `C[C@H]1NC(=O)[C@@H](Cc2ccc(NC(=O)[C@@H](NC(=O)C(F)(F)c3ccccc3)C3Cc4ccccc4C3)cc2)NC(=O)CC2(CCCC2)CC(=O)N(C)CCCCCN(C)C1=O` [Compound 631] is under 100 nM; for `COC(=O)N[C@H](C(=O)Nc1ccc(C[C@H]2NC(=O)CC3(CCCC3)CC(=O)NCCOCCOCCNC2=O)cc1)C1CCCCC1` [Compound 632] it is 100 to 1000 nM. The figure for `C[C@H]1NC(=O)[C@@H](Cc2ccc(NC(=O)[C@H](Cc3ccccc3Cl)NC(=O)C(F)(F)c3ccccc3)cc2)NC(=O)C[C@H](Cc2ccccc2)NC(=O)CCNC(=O)CCNC1=O` [Compound 633] is under 100 nM; for `C[C@H]1NC(=O)[C@@H](Cc2ccc(NC(=O)[C@H](Cc3ccccc3Cl)NC(=O)C(F)(F)c3ccccc3)cc2)NC(=O)C[C@@H](Cc2ccccc2)NC(=O)CCNC(=O)CCNC1=O` [Compound 634] it is under 100 nM. Next, `C[C@H]1NC(=O)[C@@H](Cc2ccc(NC(=O)[C@H](Cc3ccccc3Cl)NC(=O)C(F)(F)c3ccccc3)cc2)NC(=O)CC2(CCCC2)NC(=O)CCNC(=O)CCNC1=O` [Compound 635]: under 100 nM; `C[C@H]1NC(=O)[C@@H](Cc2ccc(NC(=O)[C@H](Cc3ccccc3Cl)NC(=O)C(F)(F)c3ccccc3)cc2)NC(=O)CC2(CCCC2)NC(=O)CCNC(=O)CCN(C)C1=O` [Compound 636]: under 100 nM. Take `CN1CCOCCN(C)C(=O)[C@@H](Cc2ccccn2)NC(=O)[C@@H](Cc2ccc(NC(=O)[C@H](Cc3ccccc3Cl)NC(=O)C(F)(F)c3ccccc3)cc2)NC(=O)CC2(CCCC2)CC1=O` [Compound 637]: the IC50 was under 100 nM. Next, `CN1CCOCCN(C)C(=O)[C@@H](Cc2cccnc2)NC(=O)[C@@H](Cc2ccc(NC(=O)[C@H](Cc3ccccc3Cl)NC(=O)C(F)(F)c3ccccc3)cc2)NC(=O)CC2(CCCC2)CC1=O` [Compound 638]: under 100 nM; `CN1CCOCCOCCNC(=O)[C@@H](Cc2ccc(NC(=O)[C@@H](NC(=O)Cc3ccc(N(C)C)cc3)C3CCCCC3)cc2)NC(=O)CC2(CCCC2)CC1=O` [Compound 640]: under 100 nM; `CN(C)CCCC[C@H]1NC(=O)[C@@H](Cc2ccc(NC(=O)[C@H](Cc3ccccc3Cl)NC(=O)C(F)(F)c3ccccc3)cc2)NC(=O)CC2(CCCC2)CC(=O)N(C)CCOCCN(C)C1=O` [Compound 641]: under 100 nM.

For the compound `CN(C)CC[C@H]1NC(=O)[C@@H](Cc2ccc(NC(=O)[C@H](Cc3ccccc3Cl)NC(=O)C(F)(F)c3ccccc3)cc2)NC(=O)CC2(CCCC2)CC(=O)N(C)CCOCCN(C)C1=O` [Compound 642], the IC50 was under 100 nM. Consider `CC(c1ccccc1)C(NC(=O)C(F)(F)c1ccccc1)C(=O)Nc1ccc(C[C@H]2NC(=O)CC3(CCCC3)CC(=O)N(C)CCOCCOCCNC2=O)cc1` (stereo partly shown) [Compound 643], for which the IC50 is under 100 nM. Next, `C[C@H]1NC(=O)[C@@H](Cc2ccc(NC(=O)[C@@H](NC(=O)Cc3ccc(N(C)C)cc3)C3Cc4ccccc4C3)cc2)NC(=O)CC2(CCCC2)CC(=O)N(C)CCCCCN(C)C1=O` [Compound 644]: under 100 nM. The figure for `O=C1CC2(CCCC2)CC(=O)N[C@H](Cc2ccc(NC(=O)[C@@H](NC(=O)Cc3cccc(O)c3)C3CCCCC3)cc2)C(=O)NCCOCCOCCN1` [Compound 647] is under 100 nM; for `CN1CCOCCN(C)C(=O)[C@@H](CCS(C)(=O)=O)NC(=O)[C@@H](Cc2ccc(NC(=O)[C@H](Cc3ccccc3Cl)NC(=O)C(F)(F)c3ccccc3)cc2)NC(=O)CC2(CCCC2)CC1=O` [Compound 649] it is under 100 nM; for `CN1CCOCCN(C)C(=O)[C@@H](Cc2cccnc2)NC(=O)[C@@H](Cc2ccc(NC(=O)[C@@H](NC(=O)C(F)(F)c3ccccc3)C3CCCCC3)cc2)NC(=O)CC2(CCCC2)CC1=O` [Compound 650] it is under 100 nM.

Regarding `NC(=O)CC[C@@H]1NC(=O)[C@@H](Cc2ccc(NC(=O)[C@H](Cc3ccccc3Cl)NC(=O)Cc3ccc(F)cc3)cc2)NC(=O)CC2(CCCC2)CC(=O)N[C@H](C(=O)O)CCCCNC1=O` [Compound 651], the half-maximal inhibitory concentration (IC50) was under 100 nM. `O=C1CC2(CCCC2)NC(=O)CCCCNC(=O)[C@@H](Cc2ccc(NC(=O)[C@H](Cc3ccccc3Cl)NC(=O)C(F)(F)c3ccccc3)cc2)N1` [Compound 652]: the IC50 is 100 to 1000 nM.

As for `C[C@H]1NC(=O)[C@@H](Cc2ccc(NC(=O)[C@H](Cc3ccccc3Cl)Nc3nc4ccccc4o3)cc2)NC(=O)CC2(CCCC2)CC(=O)N(C)CCOCCN(C)C1=O` [Compound 654], the IC50 was under 100 nM. `CC(O)[C@H]1NC(=O)[C@@H](Cc2ccc(NC(=O)[C@@H](NC(=O)C(F)(F)c3ccccc3)C3CCCCC3)cc2)NC(=O)CC2(CCCC2)CC(=O)N(C)CCOCCN(C)C1=O` (stereo partly shown) [Compound 655]: the IC50 was under 100 nM.

For `NC(=O)c1ccccc1C[C@H]1NC(=O)[C@@H](Cc2ccc(NC(=O)[C@H](Cc3ccccc3Cl)NC(=O)Cc3ccc(CO)cc3)cc2)NC(=O)CC2(CCCC2)CC(=O)N[C@H](C(=O)O)CCCCNC1=O` [Compound 659], the IC50 was under 100 nM. With `C[C@H]1NC(=O)[C@@H](Cc2ccc(NC(=O)[C@@H](Nc3nc4ccccc4o3)C3CCCCC3)cc2)NC(=O)CC2(CCCC2)CC(=O)N(C)CCOCCN(C)C1=O` [Compound 663], the IC50 was under 100 nM. Next, `C[C@H]1NC(=O)[C@@H](Cc2ccc(NC(=O)[C@@H](Nc3nc4ccccc4o3)C3CCCCC3)cc2)NC(=O)CC2(CCCC2)CC(=O)NCCCCCNC1=O` [Compound 664]: under 100 nM. As to `C[C@H]1NC(=O)[C@@H](Cc2ccc(NC(=O)[C@@H](Nc3nc4ccccc4o3)C3CCCCC3)cc2)NC(=O)CC2(CCCC2)CC(=O)N(C)CCCCCN(C)C1=O` [Compound 665], the IC50 is under 100 nM. Next, `COC(=O)c1coc(N[C@@H](Cc2ccccc2Cl)C(=O)Nc2ccc(C[C@H]3NC(=O)CC4(CCCC4)CC(=O)N(C)CCOCCN(C)C(=O)[C@@H](C)NC3=O)cc2)n1` [Compound 666]: under 100 nM; `CN1CCCC[C@@H](C(=O)O)N(C)C(=O)CC2(CCCC2)CC(=O)N[C@H](Cc2ccc(NC(=O)[C@H](Cc3ccccc3Cl)NC(=O)C(F)(F)c3ccccc3)cc2)C(=O)N[C@H](CCC(N)=O)C1=O` [Compound 667]: under 100 nM. The figure for `CN1CCCC[C@@H](C(=O)O)N(C)C(=O)CC2(CCCC2)CC(=O)N[C@H](Cc2ccc(NC(=O)[C@@H](NC(=O)C(F)(F)c3ccccc3)C3CCCCC3)cc2)C(=O)N[C@H](CCC(N)=O)C1=O` [Compound 668] is under 100 nM; for `CN1CCCCCN(C)C(=O)[C@@H](CC(N)=O)NC(=O)[C@@H](Cc2ccc(NC(=O)[C@H](Cc3ccccc3Cl)NC(=O)C(F)(F)c3ccccc3)cc2)NC(=O)CC2(CCCC2)CC1=O` [Compound 669] it is under 100 nM; for `CN1CCCCCN(C)C(=O)[C@@H](CC(N)=O)NC(=O)[C@@H](Cc2ccc(NC(=O)[C@@H](NC(=O)C(F)(F)c3ccccc3)C3CCCCC3)cc2)NC(=O)CC2(CCCC2)CC1=O` [Compound 670] it is under 100 nM. Turning to `O=C1CNC(=O)[C@@H](Cc2ccc(NC(=O)[C@@H](NC(=O)C(F)(F)c3ccccc3)C3CCCCC3)cc2)NC(=O)CC2(CCCC2)CC(=O)OCCCCCN1` [Compound 671], the IC50 is under 100 nM. Regarding `O=C1CNC(=O)[C@@H](Cc2ccc(NC(=O)[C@@H](NC(=O)C(F)F)C3CCCCC3)cc2)NC(=O)CC2(CCCC2)CC(=O)OCCCCCN1` [Compound 672], the IC50 is under 100 nM. For the compound `CC(=O)N[C@H](C(=O)Nc1ccc(C[C@H]2NC(=O)CC3(CCCC3)CC(=O)OCCCCCNC(=O)CNC2=O)cc1)C1CCCCC1` [Compound 673], the IC50 is under 100 nM. Take `O=C1CNC(=O)[C@@H](Cc2ccc(NC(=O)[C@H](Cc3ccccc3Cl)NC(=O)C(F)(F)c3ccccc3)cc2)NC(=O)CC2(CCCC2)CC(=O)OCCCCCN1` [Compound 674]: the IC50 is under 100 nM. Consider `O=C1CNC(=O)[C@@H](Cc2ccc(NC(=O)[C@H](Cc3ccccc3Cl)NC(=O)C(F)F)cc2)NC(=O)CC2(CCCC2)CC(=O)OCCCCCN1` [Compound 675], for which the IC50 is under 100 nM.

Take `CC(=O)N[C@@H](Cc1ccccc1Cl)C(=O)Nc1ccc(C[C@H]2NC(=O)CC3(CCCC3)CC(=O)OCCCCCNC(=O)CNC2=O)cc1` [Compound 676]: the IC50 was under 100 nM. For `CCC(F)(F)C(=O)N[C@H](C(=O)Nc1ccc(C[C@H]2NC(=O)CC3(CCCC3)CC(=O)OCCCCCNC(=O)CNC2=O)cc1)C1CCCCC1` [Compound 677], the half-maximal inhibitory concentration (IC50) was 100 to 1000 nM.
